In paper PMC12732581, “Molecular and System-Level Characterization of MMP12 Suppression in Lung Cancer: A Combined Bioinformatics and Molecular Approach” (International Journal of Molecular Sciences, 2025):

Experiments:
[1] = test system: H1299 lung cancer cells; assay: MTT cell viability assay, H1299; format: cell-based, human
Method: (§1) To evaluate the impact of MMP12 inhibitors on lung cancer cell lines, an MTT assay was performed on A549, H1299, and H661 cells exposed to varying concentrations of inhibitors over 48, 72, and 96 h.
(§2) The lung cancer cell lines referenced as A549, H1299, and H661 were acquired from the American Type Culture Collection (ATCC, Manassas, VA, USA). Fibroblast cells of dermal origin were used as a model for normal human tissue, which were also purchased from ATCC. A549, H1299, and H661 cells were maintained in the RPMI culture medium, while fibroblast cells were maintained in the DMEM high glucose culture medium. Both RPMI and DMEM culture media were supplemented with 100 U/mL penicillin, 0.1 mg/mL streptomycin to prevent bacterial growth, 10% FBS to promote cell growth, and 2 mM L-glutamine as an energy source.
(§3) The 3-(4,5-dimethylthiazol-2-yl)-2,5-diphenyltetrazolium bromide (MTT) assay was employed to evaluate cell proliferation as previously noted. All experiments were performed in triplicate wells and were repeated at least twice independently. The percentage of the relative cell viability of treated cells versus the untreated cells (negative controls) was calculated using the following formula in Equation (1) (cell viability calculation):(1) Cell viability%=optical density of treated cells/optical density of untreated cells×100

[2] = test system: A549 lung cancer cells; assay: MTT cell viability assay, A549; format: cell-based, human
Method: as §1, §2, §3

[3] = biological target: T1, recombinant human MMP12 (Homo sapiens, UniProt P39900); assay: MMP12 colorimetric thiopeptide enzyme inhibition assay (Abcam); format: biochemical; details: at 50 µM
T1 construct: purchased Abcam
Method: The enzyme inhibition potential of synthesized p-chlorocinnamic acid derivatives against MMP12 was assessed using the Abcam colorimetric assay.
The inhibitory activity of the newly synthesized compounds against MMP12 was assessed using a previously established enzymatic assay protocol, as described in our earlier study. In brief, we conducted a colorimetric thiopeptide-based inhibition assay for MMP12 using recombinant human MMP12 and the reference inhibitor NNGH as a positive control. The IC50 values were calculated using GraphPad Prism version 9 (GraphPad Software, San Diego, CA, USA).

[4] = test system: H661 lung cancer cells; assay: MTT cell viability assay, H661; format: cell-based, human
Method: as §1, §2, §3

T1 sequence (P39900 106-470): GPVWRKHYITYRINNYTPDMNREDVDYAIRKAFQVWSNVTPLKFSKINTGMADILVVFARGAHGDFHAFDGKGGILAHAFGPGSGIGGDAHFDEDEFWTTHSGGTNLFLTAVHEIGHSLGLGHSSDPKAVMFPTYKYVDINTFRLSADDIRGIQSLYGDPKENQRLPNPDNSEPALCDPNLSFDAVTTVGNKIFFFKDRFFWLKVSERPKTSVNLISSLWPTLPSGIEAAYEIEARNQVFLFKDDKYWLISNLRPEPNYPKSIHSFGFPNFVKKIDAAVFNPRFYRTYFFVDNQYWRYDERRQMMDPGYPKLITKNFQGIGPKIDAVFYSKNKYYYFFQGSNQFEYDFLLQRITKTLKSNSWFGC

| SMILES | IC50 ([1]; H1299, 48 h) [µM] | IC50 ([1]; H1299, 72 h) [µM] | IC50 ([1]; H1299, 96 h) [µM] | IC50 ([2]; A549, 48 h) [µM] | IC50 ([2]; A549, 96 h) [µM] | MMP12 enzyme inhibition [3] [%] | IC50 ([4]; H661, 48 h) [µM] | IC50 ([4]; H661, 72 h) [µM] | IC50 ([4]; H661, 96 h) [µM] | IC50 ([2]; A549, 72 h) [µM] |
| --- | --- | --- | --- | --- | --- | --- | --- | --- | --- | --- |
| O=C(/C=C/c1ccc(Cl)cc1)Nc1ccccc1C(=O)c1ccccc1 [Compound C5] | 636 | 449 | 419 | > 1000 | 865 | 11.5 | 489 | 366 | 226 | – |
| Cc1ccc(C(=O)c2ccccc2NC(=O)/C=C/c2ccc(Cl)cc2)cc1 [Compound C6] | 361 | 268 | 256 | > 1000 | 830 | 21.3 | 448 | 260 | 270 | > 1000 |
| O=C(/C=C/c1ccc(Cl)cc1)Nc1ccc(Cl)cc1C(=O)c1ccccc1 [Compound C3] | 557 | 401 | 338 | 251 | 999 | 23.5 | 571 | 301 | 203 | 269 |
| O=C(/C=C/c1ccc(Cl)cc1)Nc1cccc(C(=O)c2ccccc2)c1 [Compound C2] | 827 | 692 | 349 | > 1000 | > 1000 | 35.0 | 599 | 410 | 350 | > 1000 |
